Source: US7704995B2 (Exelixis, Inc., priority 2003, dated 2010)
Where two headings read alike, the source gives them in different places.

Target: T1, Chk1 (Homo sapiens, UniProt O14757)
T1 construct: purchased Upstate Biotechnology
T1 sequence (O14757 1-476): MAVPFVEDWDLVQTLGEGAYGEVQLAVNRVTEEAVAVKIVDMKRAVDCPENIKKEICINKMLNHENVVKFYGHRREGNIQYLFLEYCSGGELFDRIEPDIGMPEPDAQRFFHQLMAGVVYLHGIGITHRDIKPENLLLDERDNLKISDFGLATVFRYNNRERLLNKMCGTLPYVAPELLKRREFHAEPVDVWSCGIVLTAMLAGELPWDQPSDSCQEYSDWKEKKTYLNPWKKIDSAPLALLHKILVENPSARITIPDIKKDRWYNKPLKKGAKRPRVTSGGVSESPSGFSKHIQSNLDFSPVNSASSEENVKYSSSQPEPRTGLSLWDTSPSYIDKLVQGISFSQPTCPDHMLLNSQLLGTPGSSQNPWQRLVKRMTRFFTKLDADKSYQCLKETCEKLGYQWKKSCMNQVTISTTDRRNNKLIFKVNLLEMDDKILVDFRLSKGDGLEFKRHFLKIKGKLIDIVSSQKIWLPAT
Assay: Chk1 kinase assay: incorporation of γ-33P ATP into immobilized myelin basic protein
Assay type: biochemical
Details: read-out: Chk1 IC50
Method in brief: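 Immobilized-MBP radiometric kinase assay, room temperature for 1 h; ATP 10 μM (Chk1, 10 nM enzyme) or 30 μM (Chk2, 20 nM enzyme) with 33P tracer. Values are IC50s, with Ki derived from them.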

[1] = Table 11, Chk1 only, class symbols A-D

Compound | IC50 (Table 11, Chk1 only) [nM] | IC50 [nM] | also measured
Nc1ncc(-c2cccc(C(=O)NCc3ccccc3)c2)nc1C(=O)N[C@H]1CCCNC1 [Example 1040, 3-amino-6-{3-[({[phenyl]methyl}amino)carbonyl]phenyl}-N-[(3S)-piperidin-3-yl]pyrazine-2-carboxamide] |  |  | IC50 [1]: < 50 nM
Nc1ncc(-c2cccc(C(=O)NCc3ccccc3)c2)nc1C(=O)c1cccc(F)c1 [Example 560, 3-{5-amino-6-[(3-fluorophenyl)carbonyl]pyrazin-2-yl}-N-(phenylmethyl)benzamide] | ≥ 10000 |  | 
Nc1ncc(-c2cccc(C(=O)NCc3ccccc3)c2)nc1C(=O)N[C@@H](CCC(=O)O)C(=O)O [Example 594, N-{[3-amino-6-(3-{[(phenylmethyl)amino]carbonyl}phenyl)pyrazin-2-yl]carbonyl}glutamic acid] | 1000 to 10000 |  | 
CNC(=O)c1nc(-c2cccc(CNC3CCc4c(F)ccc(F)c43)c2)cnc1N (centres unmarked) [Example 469, 3-amino-6-(3-{[(4,7-difluoro-2,3-dihydro-1H-inden-1-yl)amino]methyl}phenyl)-N-methylpyrazine-2-carboxamide] | 50 to 1000 |  | 
C/C(=N\Nc1ccc(C(=O)O)cc1)c1nc(-c2cccc(C(=O)NCc3ccccc3)c2)cnc1N [Example 627, 4-((2E)-2-{1-[3-amino-6-(3-{[(phenylmethyl)amino]carbonyl}phenyl)pyrazin-2-yl]ethylidene}hydrazino)benzoic acid] | 1000 to 10000 |  | 
CNC(=O)c1nc(-c2cccc(C(=O)NCc3cccc(OC)c3OC)c2)cnc1N [Example 113, 3-amino-6-{3-[({[2,3-bis(methyloxy)phenyl]methyl}amino)carbonyl]phenyl}-N-methylpyrazine-2-carboxamide] |  | 50 to 1000 | 
Cc1cc(Cl)ccc1CNC(=O)c1cccc(-c2cnc(N)c(C(=O)N[C@H]3CCCNC3)n2)c1 [Example 857, 3-amino-6-[3-({[(4-chloro-2-methylphenyl)methyl]amino}carbonyl)phenyl]-N-[(3S)-piperidin-3-yl]pyrazine-2-carboxamide] |  |  | IC50 [1]: < 50 nM
COc1ccccc1-c1cnc(N)c(C(N)=O)n1 [Example 17, 3-amino-6-[2-(methyloxy)phenyl]pyrazine-2-carboxamide] |  | ≥ 10000 | 
Nc1ncc(-c2ccccc2)nc1C(=O)N[C@H]1CCc2ccccc21 [Example 5, 3-amino-N-[(1S)-2,3-dihydro-1H-inden-1-yl]-6-phenylpyrazine-2-carboxamide] |  | ≥ 10000 | 
Nc1ncc(-c2cccc(CNC(=O)Nc3ccc(C(F)(F)F)cc3)c2)nc1C(=O)N[C@H]1CCCNC1 [Example 931, 3-amino-N-[(3S)-piperidin-3-yl]-6-(3-{[({[4-(trifluoromethyl)phenyl]amino}carbonyl)amino]methyl}phenyl)pyrazine-2-carboxamide] |  |  | IC50 [1]: < 50 nM
Nc1ncc(-c2cccc(C(=O)NC3CCCC3)c2)nc1C(=O)N[C@H]1CCCNC1 [Example 929, 3-amino-6-{3-[(cyclopentylamino)carbonyl]phenyl}-N-[(3S)-piperidin-3-yl]pyrazine-2-carboxamide] |  |  | IC50 [1]: 50 to 1000 nM
Nc1ncc(-c2cccc(C(=O)NCc3ccccc3)c2)nc1-c1nc(-c2ccccc2)n(-c2ccccc2)n1 [Example 670, 3-[5-amino-6-(1,5-diphenyl-1H-1,2,4-triazol-3-yl)pyrazin-2-yl]-N-(phenylmethyl)benzamide] | ≥ 10000 |  | 
CC[C@H](NC(=O)c1cccc(-c2cnc(N)c(C(=O)NC)n2)c1)c1ccccc1 [Example 147, 3-amino-N-methyl-6-[3-({[(1S)-1-phenylpropyl]amino}carbonyl)phenyl]pyrazine-2-carboxamide] |  | 1000 to 10000 | 
Nc1ncc(-c2cccc(C(=O)NCc3cc(F)cc(Br)c3)c2)nc1C(=O)N[C@H]1CCCNC1 [Example 1032, 3-amino-6-[3-({[(3-bromo-5-fluorophenyl)methyl]amino}carbonyl)phenyl]-N-[(3S)-piperidin-3-yl]pyrazine-2-carboxamide] |  |  | IC50 [1]: < 50 nM
C/C(=N\Nc1ccc(C(C)C)cc1)c1nc(-c2cccc(C(=O)NCc3ccccc3)c2)cnc1N [Example 600, 3-(5-amino-6-{(1E)-N-[4-(1-methylethyl)phenyl]ethanehydrazonoyl}pyrazin-2-yl)-N-(phenylmethyl)benzamide] | 1000 to 10000 |  | 
Nc1ncc(-c2cccc(C(=O)NCc3ccc(Cl)cc3)c2)nc1-c1nnc([C@H]2CCCNC2)[nH]1 [Example 838, 3-(5-amino-6-{5-[(3S)-piperidin-3-yl]-4H-1,2,4-triazol-3-yl}pyrazin-2-yl)-N-[(4-chlorophenyl)methyl]benzamide] |  |  | IC50 [1]: < 50 nM
CNC(=O)c1nc(-c2cccc(NC(=O)Cc3ccc(Cl)c(Cl)c3)c2)cnc1N [Example 210, 3-amino-6-(3-{[(3,4-dichlorophenyl)acetyl]amino}phenyl)-N-methylpyrazine-2-carboxamide] |  | 50 to 1000 | 
CNC(=O)c1nc(-c2cccc(CNC3CCc4c(F)cc(Br)cc43)c2)cnc1N (centres unmarked) [Example 470, 3-amino-6-(3-{[(6-bromo-4-fluoro-2,3-dihydro-1H-inden-1-yl)amino]methyl}phenyl)-N-methylpyrazine-2-carboxamide] | 50 to 1000 |  | 
C/C(=N\Nc1ccc(C(F)(F)F)cc1)c1nc(-c2cccc(C(=O)NCc3ccccc3)c2)cnc1N [Example 640, 3-(5-amino-6-{(1E)-N-[4-(trifluoromethyl)phenyl]ethanehydrazonoyl}pyrazin-2-yl)-N-(phenylmethyl)benzamide] | ≥ 10000 |  | 
CNC(=O)c1nc(-c2cncnc2)cnc1N [Example 233, 3-amino-N-methyl-6-pyrimidin-5-ylpyrazine-2-carboxamide] |  | ≥ 10000 | 
Nc1ncc(-c2cccc(C(=O)NCCc3ccc(F)cc3)c2)nc1C(=O)N[C@H]1CCCNC1 [Example 925, 3-amino-6-[3-({[2-(4-fluorophenyl)ethyl]amino}carbonyl)phenyl]-N-[(3S)-piperidin-3-yl]pyrazine-2-carboxamide] |  |  | IC50 [1]: < 50 nM
Nc1ncc(-c2cccc(NC(=O)c3ccc(-c4cnns4)cc3)c2)nc1C(=O)N[C@H]1CCCNC1 [Example 901, 3-amino-N-[(3S)-piperidin-3-yl]-6-[3-({[4-(1,2,3-thiadiazol-5-yl)phenyl]carbonyl}amino)phenyl]pyrazine-2-carboxamide] |  |  | IC50 [1]: < 50 nM
CNC(=O)c1cc(-c2cccc(CN[C@H]3CCc4ccccc43)c2)cnc1N [Example 509, 2-amino-5-(3-{[(1S)-2,3-dihydro-1H-inden-1-ylamino]methyl}phenyl)-N-methylpyridine-3-carboxamide] | 50 to 1000 |  | 
CNC(=O)c1nc(-c2cccc(NCc3ccccc3)c2)cnc1N [Example 372, 3-amino-N-methyl-6-{3-[(phenylmethyl)amino]phenyl}pyrazine-2-carboxamide] |  | 50 to 1000 | 

The next lines start with results.

IC50 (Table 11, Chk1 only) [nM] | IC50 [nM] | Compound | also measured
 | 50 to 1000 | CNC(=O)c1nc(-c2cccc(C(=O)NCc3c(C)cccc3Cl)c2)cnc1N [Example 250, 3-amino-6-[3-({[(2-chloro-6-methylphenyl)methyl]amino}carbonyl)phenyl]-N-methylpyrazine-2-carboxamide] | 
 | 50 to 1000 | CNC(=O)c1nc(-c2cccc(C(=O)NCc3cc(Cl)cc(Cl)c3)c2)cnc1N [Example 276, 3-amino-6-[3-({[(3,5-dichlorophenyl)methyl]amino}carbonyl)phenyl]-N-methylpyrazine-2-carboxamide] | 
50 to 1000 |  | CCN1CCCC(NC(=O)c2nc(-c3cccc(C(=O)N[C@H]4CCc5ccccc54)c3)cnc2N)C1 (stereo partly drawn) [Example 730, 3-amino-6-(3-{[(1S)-2,3-dihydro-1H-inden-1-ylamino]carbonyl}phenyl)-N-(1-ethylpiperidin-3-yl)pyrazine-2-carboxamide] | 
1000 to 10000 |  | Nc1ncc(-c2cccc(C(=O)N[C@H]3CCc4ccccc43)c2)nc1C(=O)N[C@H]1CCN(C(=O)c2ccco2)C1 [Example 646, 3-amino-6-(3-{[(1S)-2,3-dihydro-1H-inden-1-ylamino]carbonyl}phenyl)-N-[(3S)-1-(furan-2-ylcarbonyl)pyrrolidin-3-yl]pyrazine-2-carboxamide] | 
 | 50 to 1000 | CNC(=O)c1nc(-c2cccc(C(=O)NCc3cc(Cl)ccc3C)c2)cnc1N [Example 213, 3-amino-6-[3-({[(5-chloro-2-methylphenyl)methyl]amino}carbonyl)phenyl]-N-methylpyrazine-2-carboxamide] | 
1000 to 10000 |  | Nc1ncc(-c2cccc(C(=O)NCc3ccccc3)c2)nc1C(=O)N[C@H]1CCN(C2CCNCC2)C1 [Example 687, 3-amino-6-(3-{[(phenylmethyl)amino]carbonyl}phenyl)-N-[(3S)-1-piperidin-4-ylpyrrolidin-3-yl]pyrazine-2-carboxamide] | 
50 to 1000 |  | Nc1ncc(-c2cccc(C(=O)N[C@H]3CCc4ccccc43)c2)nc1C(=O)NC1CCCNCC1 (stereo partly drawn) [Example 768, 3-amino-N-azepan-4-yl-6-(3-{[(1S)-2,3-dihydro-1H-inden-1-ylamino]carbonyl}phenyl)pyrazine-2-carboxamide] | 
50 to 1000 |  | Nc1ncc(-c2cccc(C(=O)N[C@@H]3c4ccccc4C[C@@H]3O)c2)nc1C(=O)NCCc1c[nH]cn1 [Example 751, 3-amino-6-[3-({[(1R,2S)-2-hydroxy-2,3-dihydro-1H-inden-1-yl]amino}carbonyl)phenyl]-N-[2-(1H-imidazol-4-yl)ethyl]pyrazine-2-carboxamide] | 
